This is an account of results in US20240309012A1, “ISOQUINOLINE COMPOUND, MANUFACTURING METHOD THEREFOR, AND APPLICATION THEREOF” (priority 2020, published 2024).

Where two headings read alike, the source gives them in different places.

For data set [1], the system named is 2019 novel coronavirus (SARS-CoV-2). Description: Inhibition of 2019 novel coronavirus (SARS-CoV-2) replication in Vero E6 cells, virus copy number by qRT-PCR. In kind it is cell-based.
Data set [2] in a line: Cytotoxicity test on Vero E6 cells by CCK8 kit. The format is cell-based. Conditions: African green monkey. The procedure: (§1) In this example, the median toxic concentration (CC50) of each example on Vero E6 cells was analysed and determined by CCK8 kit.
The test system of the next data set is SARS-CoV-2. As to conditions: existing literature; cited from earlier work.
The next data set has as its system Vero E6 cells. Description: Cytotoxicity test on Vero E6 cells by CCK8 kit. In kind it is cell-based. On the procedure:
as §1
For orientation: Tetrazolium dyes change colour on reduction, which living cells bring about.

Setting [3] is: Severe acute respiratory syndrome coronavirus 2, Vero C1008, Vero E6 cells, MOI 0.01, 24 h p.i., qRT-PCR of supernatant.
The mark [4] stands for this setting: Severe acute respiratory syndrome coronavirus 2, Vero C1008, 24 h.

As usually defined, the EC50 is the concentration at which the effect is half-maximal. By CC50 is commonly meant the concentration that lowers cell viability or growth by half. `COc1cc2c3cc1Oc1c(OC)c(OC)cc4c1[C@@H](Cc1ccc(C(=O)C5CC5)c(c1)Oc1ccc(cc1)C[C@@H]3N(C)CC2)N(C)CC4` [Compound 61] showed an EC50 in data set [1] (setting [3]) of less than 2 µM. Also, in data set [2], it took 13.7 µM to reach half-maximal cytotoxicity (CC50).

In data set [1] (setting [3]), `COc1cc2c3cc1Oc1c(OC)c(OC)cc4c1[C@@H](Cc1cc(cc([N+](=O)[O-])c1)Oc1ccc(cc1)C[C@@H]3N(C)CC2)N(C)CC4` [Compound 33] yielded an EC50 of 0.63 µM. In addition, the CC50 in data set [2] is 24.3 µM.

The compound `CCCCCNC(=O)c1ccc2cc1Oc1ccc(cc1)C[C@H]1c3cc(c(OC)cc3CCN1C)Oc1c(OC)c(OC)cc3c1[C@@H](C2)N(C)CC3` [Compound 43] yielded an EC50 in data set [1] (setting [3]) of 2.09 µM. In addition, the CC50 in data set [2] came to 10.4 µM.

Consider `C=CC(=O)Nc1ccc2cc1Oc1ccc(cc1)C[C@H]1c3cc(c(OC)cc3CCN1C)Oc1c(OC)c(OC)cc3c1[C@@H](C2)N(C)CC3` [Compound 42], for which, in data set [1] (setting [3]), the EC50 is less than 2 µM. The same compound returned a CC50 in data set [2] of 31.1 µM.

In data set [1] (setting [3]), `COc1cc2c3cc1Oc1c(OC)c(OC)cc4c1[C@@H](Cc1ccc(C(=O)OCCOCCO)c(c1)Oc1ccc(cc1)C[C@@H]3N(C)CC2)N(C)CC4` [Compound 65] gave an EC50 of less than 2 µM. Moreover, the CC50 in data set [2] worked out at 58.4 µM.

On to `COc1cc2c3cc1Oc1c(OC)c(OC)cc4c1[C@@H](Cc1ccc(C(=O)N5CCCCC5)c(c1)Oc1ccc(cc1)C[C@@H]3N(C)CC2)N(C)CC4` [Compound 47], for which the EC50 in data set [1] (setting [3]) was less than 2 µM. Moreover, in data set [2], the CC50 is 24.6 µM.

As to `C=C(C)c1ccc2cc1Oc1ccc(cc1)C[C@H]1c3cc(c(OC)cc3CCN1C)Oc1c(OC)c(OC)cc3c1[C@@H](C2)N(C)CC3` [Compound 40], it took 0.95 µM to reach a half-maximal effect in data set [1] (setting [3]) (EC50). Also, the CC50 in data set [2] worked out at 11.7 µM.

`COc1cc2c3cc1Oc1c(OC)c(OC)cc4c1[C@@H](Cc1ccc(OC(=O)CCCC[C@H]5CCSS5)c(c1)Oc1ccc(cc1)C[C@@H]3N(C)CC2)N(C)CC4` [Compound 5] gave an EC50 in data set [1] (setting [3]) of 1.5 µM. For the same compound, the CC50 in data set [2] was 172 µM.

`COc1cc2c3cc1Oc1c(OC)c(OC)cc4c1[C@@H](Cc1ccc(C)c(c1)Oc1ccc(cc1)C[C@@H]3N(C)CC2)N(C)CC4` [Compound 41] showed an EC50 in data set [1] (setting [3]) of 2.45 µM. In data set [2], this compound displayed a CC50 of 10.2 µM.

For the compound `COc1cc2c3cc1Oc1c(OC)c(OC)cc4c1[C@@H](Cc1ccc(C(C)=O)c(c1)Oc1ccc(cc1)C[C@@H]3N(C)CC2)N(C)CC4` [Compound 25], in data set [1] (setting [3]), the EC50 is less than 2 µM. Moreover, the CC50 in data set [2] turned out to be 29.4 µM.

Compound `COc1cc2c3cc1Oc1c(OC)c(OC)cc4c1[C@@H](Cc1ccc(C(C)O)c(c1)Oc1ccc(cc1)C[C@@H]3N(C)CC2)N(C)CC4` (stereo partly drawn) [Compound 46] showed an EC50 in data set [1] (setting [3]) of 1.02 µM. Besides, in data set [2], the CC50 turned out to be 29.7 µM.

In data set [1] (setting [3]), `COc1cc2c3cc1Oc1c(OC)c(OC)cc4c1[C@@H](Cc1ccc(C(=O)NC5CCC5)c(c1)Oc1ccc(cc1)C[C@@H]3N(C)CC2)N(C)CC4` [Compound 57] returned an EC50 of less than 2 µM. It took 33.9 µM to reach half-maximal cytotoxicity in data set [2] (CC50).

In data set [1] (setting [4]), `CCCCNC(=O)Oc1c(OC)cc2c3c1Oc1cc4c(cc1OC)CCN(C)[C@H]4Cc1ccc(cc1)Oc1cc(ccc1OC)C[C@H]3N(C)CC2` [Compound 53] came in with an EC50 of less than 2 µM. In data set [2], the CC50 amounted to 22.2 µM.

`COc1cc2c3cc1Oc1c(OC)c(OC)cc4c1[C@@H](Cc1cccc(c1)Oc1ccc(cc1)C[C@@H]3N(C)CC2)N(C)CC4` [Compound 39] had an EC50 in data set [1] (setting [3]) of 0.93 µM. The midpoint of cytotoxicity in data set [2], the CC50, lay at 17.1 µM.

In the case of “Berbamine hydrochloride [reference compound]”, the “Anti-novel coronavirus effect (in words)” value in the data set with SARS-CoV-2 is “not strong”. It took 14.5 µM to reach a half-maximal effect in data set [1] (EC50). The compound also showed a CC50 in the data set with Vero E6 cells of 29.9 µM.

Compound `COc1cc2c3cc1Oc1c(OC)c(OC)cc4c1[C@@H](Cc1ccc(C(=O)Nc5ccc(C(F)(F)F)cc5)c(c1)Oc1ccc(cc1)C[C@@H]3N(C)CC2)N(C)CC4` [Compound 54] gave an EC50 in data set [1] (setting [3]) of less than 2 µM. Besides, the half-maximal cytotoxic concentration (CC50) in data set [2] came out at 10.5 µM.

For `COc1cc2c3cc1Oc1c(OC)c(OC)cc4c1[C@@H](Cc1ccc(C(=O)Nc5cccnc5)c(c1)Oc1ccc(cc1)C[C@@H]3N(C)CC2)N(C)CC4` [Compound 58], the EC50 in data set [1] (setting [3]) was less than 2 µM. Further, in data set [2], the midpoint of cytotoxicity, the CC50, lay at 26.4 µM.

On to `COc1cc2c3cc1Oc1c(OC)c(OC)cc4c1[C@@H](Cc1ccc(C(=O)NC(C)C)c(c1)Oc1ccc(cc1)C[C@@H]3N(C)CC2)N(C)CC4` [Compound 55], for which the EC50 in data set [1] (setting [3]) is less than 2 µM. This compound yielded a CC50 in data set [2] of 32 µM.

Take `CCCCNC(=O)Oc1ccc2cc1Oc1ccc(cc1)C[C@H]1c3cc(c(OC)cc3CCN1C)Oc1c(OC)c(OC)cc3c1[C@@H](C2)N(C)CC3` [Compound 4]: in data set [1] (setting [4]), the EC50 was found to be 0.94 µM. Further, in data set [2], the CC50 came to 31.5 µM.

As to `COc1cc2c3cc1Oc1c(OC)c(OC)cc4c1[C@@H](Cc1cc(c5oc(=O)[nH]c5c1)Oc1ccc(cc1)C[C@@H]3N(C)CC2)N(C)CC4` [Compound 18], the EC50 in data set [1] (setting [3]) stood at 0.9 µM. Moreover, in data set [2], it took 14.7 µM to reach half-maximal cytotoxicity (CC50).

The compound `COc1cc2c3cc1Oc1c(OC)c(OC)cc4c1[C@@H](Cc1ccc(C5CC5)c(c1)Oc1ccc(cc1)C[C@@H]3N(C)CC2)N(C)CC4` [Compound 44] displayed an EC50 in data set [1] (setting [3]) of 2.25 µM. Besides, in data set [2], the CC50 was found to be 10.8 µM.

In data set [1] (setting [3]), `COc1cc2c3cc1Oc1c(OC)c(OC)cc4c1[C@@H](Cc1ccc(C(=O)NC5CC5)c(c1)Oc1ccc(cc1)C[C@@H]3N(C)CC2)N(C)CC4` [Compound 49] returned an EC50 of less than 2 µM. In data set [2], this compound registered a CC50 of 62.3 µM.

`COc1cc2c3cc1Oc1c(OC)c(OC)cc4c1[C@@H](Cc1ccc(C(N)=O)c(c1)Oc1ccc(cc1)C[C@@H]3N(C)CC2)N(C)CC4` [Compound 9] registered an EC50 in data set [1] (setting [3]) of 0.55 µM. Also, the midpoint of cytotoxicity in data set [2], the CC50, lay at 63.2 µM.

The compound `COc1cc2c3cc1Oc1c(OC)c(OC)cc4c1[C@@H](Cc1ccc(C(=O)NCCOCCO)c(c1)Oc1ccc(cc1)C[C@@H]3N(C)CC2)N(C)CC4` [Compound 62] displayed an EC50 in data set [1] (setting [3]) of less than 2 µM. The CC50 in data set [2] is 123 µM.

For the compound `COc1cc2c3cc1Oc1c(OC)c(OC)cc4c1[C@@H](Cc1ccc(C#N)c(c1)Oc1ccc(cc1)C[C@@H]3N(C)CC2)N(C)CC4` [Compound 1], the response in data set [1] (setting [3]) was half-maximal at 0.7 µM (EC50). In data set [2], this compound came in with a CC50 of 25.6 µM.

`COc1cc2c3cc1Oc1c(OC)c(OC)cc4c1[C@@H](Cc1ccc(C(=O)NC5CCCC5)c(c1)Oc1ccc(cc1)C[C@@H]3N(C)CC2)N(C)CC4` [Compound 28] had an EC50 in data set [1] (setting [3]) of 2.4 µM. This compound yielded a CC50 in data set [2] of 22.5 µM.

`COC(=O)c1ccc2cc1Oc1ccc(cc1)C[C@H]1c3cc(c(OC)cc3CCN1C)Oc1c(OC)c(OC)cc3c1[C@@H](C2)N(C)CC3` [Compound 8] came in with an EC50 in data set [1] (setting [3]) of 0.36 µM. In addition, in data set [2], the CC50 amounted to 31.4 µM.

Regarding `COc1cc2c3cc1Oc1c(OC)c(OC)cc4c1[C@@H](Cc1ccc(C(=O)Nc5ccccc5)c(c1)Oc1ccc(cc1)C[C@@H]3N(C)CC2)N(C)CC4` [Compound 51], the EC50 in data set [1] (setting [3]) is less than 2 µM. This compound also showed a CC50 in data set [2] of 10.2 µM.

On to `COc1cc2c3cc1Oc1c(OC)c(OC)cc4c1[C@@H](Cc1ccc(C=O)c(c1)Oc1ccc(cc1)C[C@@H]3N(C)CC2)N(C)CC4` [Compound 2], for which the EC50 in data set [1] (setting [3]) was 1.19 µM. This compound also yielded a CC50 in data set [2] of 102 µM.

As for `COc1cc2c3cc1Oc1c(OC)c(OC)cc4c1[C@@H](Cc1ccc(CO)c(c1)Oc1ccc(cc1)C[C@@H]3N(C)CC2)N(C)CC4` [Compound 3], the EC50 in data set [1] (setting [3]) amounted to 1.12 µM. The 50% cytotoxic concentration (CC50) in data set [2] came to 70.5 µM.

On to `COc1ccc(NC(=O)c2ccc3cc2Oc2ccc(cc2)C[C@H]2c4cc(c(OC)cc4CCN2C)Oc2c(OC)c(OC)cc4c2[C@@H](C3)N(C)CC4)cc1` [Compound 59], for which the EC50 in data set [1] (setting [3]) was less than 2 µM. Moreover, half-maximal cytotoxicity in data set [2] (CC50) was put at 10.6 µM.
